Tests used:
Assay type in all cases: in vivo, human
[1] = Low thyroid symptoms / clinical status of weight loss program patients on thyroid hormone treatment
Method: (§1) The first patient example is a person, 5′2″, weight 268 lbs, body mass index (BMI) 49 (nl 19-24; overweight 25-29; obesity≧30). Baseline blood pressure was 110/74, blood sugar (BS) was 153 mg/dL 10 days after their first visit. Their medical problems at baseline included obesity, type 2 diabetes mellitus (DM2), high blood pressure (HTN), fatigue, depression, and asthma. Their medications included glipizide 10 mg daily, amitriptyline 50 mg daily, metoprolol 50 mg daily, furosemide 40 mg daily, potassium chloride, lisinopril 10 mg daily, Advair Discus 500/50 twice daily (bid), and montelukast 10 mg daily. They were started on our comprehensive program. Five months after starting their weight loss treatment, they developed symptoms of hypothyroidism with constipation and fatigue. They had lost 28 lbs by this time and was having difficulty losing more weight even though they were eating less than they were before their weight loss treatment began. At the start of treatment, their FT4 was 0.9 ng/dL (nl 0.7-1.48). At the time of their low thyroid symptoms, their FT3 was 2.9 pg/mL (nl 1.71-3.71) and their FT4 was 0.91 ng/dL (nl 0.7-1.48). They were then treated with thyroid hormone (desiccated thyroid with a ratio of T4:T3 of about 4:1) at 60 mg daily for 6 days to acclimate, then increased to 120 mg daily. […] After two years on their weight loss treatment, their weight was 231 lbs. […] We tested for rT3 at this point. Their labs on the 150 mg dose of desiccated thyroid were: rT3 394 pg/mL (nl 90-350), FT3 3.94 pg/mL (nl 1.71-3.71), and FT4 1.24 ng/dL (nl 0.7-1.48). The task of bringing down their rT3 was then addressed. Over a period of a few months, their desiccated thyroid hormone was discontinued and instead the patient was given gradually increasing doses of T3 only, starting at 20 mcg daily and gradually increasing the T3 to 60 mcg bid. Five months after starting on T3 with increasing doses, their weight had dropped to 209 lbs. Their BP was 118/66 mmHg with pulse of 74 on lisinopril 10 mg daily, metoprolol 50 mg bid, and furosemide 40 mg daily. Instead of glipizide, they were taking metformin 500 mg bid. […] Their most recent labs on 60 mcg bid of T3 were FT3 3.8 pg/mL (nl 1.71-3.71), FT4 0.64 ng/dL (nl 0.7-1.48) and rT3 137 pg/mL (nl 90-350). Four months prior to this visit their BS was 125 mg/dl.
(§2) The second patient example is a person, 5′2″, weight 150 lbs, BMI 28 (nl 18.5-24.9; overweight 25-29.9; obesity≧30), with HTN. Their blood pressure was slightly elevated at 148/85 (on lisinopril 5 mg daily). Their medical problems at baseline included history of Hashimoto's thyroiditis, borderline high TSH, elevated lipids, and HTN. Their medications were lisinopril 5 mg daily, estradiol 2 mg daily, and rofecoxib 25 mg daily for osteoarthritis of their large joints. […]

[2] = as above; settings: for reported symptoms: Patient Example 4
[3] = Blood pressure and pulse of weight loss program patients on thyroid hormone treatment
Method: as §1, §2

[4] = Body weight of weight loss program patients on thyroid hormone treatment
Method: The first patient example is a person, 5′2″, weight 268 lbs, body mass index (BMI) 49 (nl 19-24; overweight 25-29; obesity≧30). Baseline blood pressure was 110/74, blood sugar (BS) was 153 mg/dL 10 days after their first visit. Their medical problems at baseline included obesity, type 2 diabetes mellitus (DM2), high blood pressure (HTN), fatigue, depression, and asthma. Their medications included glipizide 10 mg daily, amitriptyline 50 mg daily, metoprolol 50 mg daily, furosemide 40 mg daily, potassium chloride, lisinopril 10 mg daily, Advair Discus 500/50 twice daily (bid), and montelukast 10 mg daily. They were started on our comprehensive program. Five months after starting their weight loss treatment, they developed symptoms of hypothyroidism with constipation and fatigue. They had lost 28 lbs by this time and was having difficulty losing more weight even though they were eating less than they were before their weight loss treatment began. At the start of treatment, their FT4 was 0.9 ng/dL (nl 0.7-1.48). At the time of their low thyroid symptoms, their FT3 was 2.9 pg/mL (nl 1.71-3.71) and their FT4 was 0.91 ng/dL (nl 0.7-1.48). They were then treated with thyroid hormone (desiccated thyroid with a ratio of T4:T3 of about 4:1) at 60 mg daily for 6 days to acclimate, then increased to 120 mg daily. […] After two years on their weight loss treatment, their weight was 231 lbs. […]

[5] = Patient Example 2, T3 only, 25 mcg bid
[6] = Patient Example 1, on T3 only, with lisinopril, metoprolol, furosemide

N[C@@H](Cc1cc(I)c(Oc2ccc(O)c(I)c2)c(I)c1)C(=O)O [T3, (2S)-2-amino-3-[4-(4-hydroxy-3-iodo-phenoxy)-3,5-diiodo-phenyl]propanoic acid]
clinical thyroid status ([1]; Patient Example 1, on T3 only): clinically euthyroid
lipids [1, 5]: improved compared to baseline
low thyroid symptoms [1, 5]: no longer suffered from hair loss; their bowels were normal, they felt well
low thyroid symptoms ([2]; Patient Example 3, T3 25 mcg t.i.d. alone, about a week after stopping desiccated thyroid): low thyroid symptoms returned
reported symptoms ([2]; T3 50 mcg 2 PO q am and 1 PO 8-10 hours later, initial visit): feeling cold, hair loss and nail peeling
reported symptoms ([2]; same T3 dose (not decreased), over 6 weeks later): continued to report suffering from fatigue and coldness
BP [3, 6]: 118/66
pulse [3, 6]: 74
pulse [3, 5]: 72
BP ([3]; Patient Example 2, T3 only, 25 mcg bid, on no medications): 122/80
weight ([4]; Patient Example 1, five months after starting T3 only, 20 mcg daily increasing to 60 mcg bid): 209 lbs
weight [4, 5]: 125 lbs
